Results taken from ChEMBL document CHEMBL1127329, “6-(1H-imidazol-1-yl)-7-nitro-2,3(1H,4H)-quinoxalinedione hydrochloride (YM90K) and related compounds: structure-activity relationships for the AMPA-type non-NMDA receptor” (J Med Chem, 1994).

Tests used:
[1] = target: Glutamate receptor ionotropic, AMPA (Rattus norvegicus, UniProt P19490+P19491+P19492+P19493)
Description: Binding affinity against AMPA receptor in rat brain membrane using [3H]-AMPA as radioligand

[2] = target: T1, Glutamate receptor ionotropic, AMPA (Rattus norvegicus) (UniProt P19491+P19492+P19493+P19490); assay: Ability to inhibit [3H]AMPA binding to AMPA receptor in rat whole brain at 100 uM concentration; assay type: tissue-based
[3] = target: T1, Glutamate receptor ionotropic, AMPA (Rattus norvegicus); assay: Ability to inhibit [3H]AMPA binding to AMPA receptor in rat whole brain at 1 uM concentration
[4] = target: Glutamate receptor ionotropic, kainate; assay: Binding affinity against kainate receptor in rat brain membrane using [3H]kainate as radioligand; assay type: cell membranes
Glutamate NMDA receptor [5] = assay: Binding affinity of compound against strychnine-insensitive glycine site on NMDA receptor in rat brain membrane using [3H]glycine as radioligand; assay type: cell membranes
Glutamate NMDA receptor [6] = assay: Binding affinity of compound against NMDA receptor binding site in rat brain membrane using [3H]glutamate as radioligand; assay type: cell membranes

Compound	Ki [1] [nM]	further results
N#Cc1ccc2nc(O)c(O)nc2c1	5000	
O=[N+]([O-])c1cc(-n2ccnc2)cc2nc(O)c(O)nc12	1900	
O=[N+]([O-])c1cn(-c2cc3nc(O)c(O)nc3cc2[N+](=O)[O-])cn1	100	
Cc1cn(-c2cc3nc(O)c(O)nc3cc2[N+](=O)[O-])cn1	180	
O=[N+]([O-])c1cc2nc(O)c(O)nc2cc1-n1cccn1	1400	
CCc1nccn1-c1cc2nc(O)c(O)nc2cc1[N+](=O)[O-]	390	
O=[N+]([O-])c1cc2nc(O)c(O)nc2cc1-n1cnc(-c2ccccc2)c1	230	
Oc1nc2ccccc2nc1O		inhibition [2]: 24%
O=[N+]([O-])c1cc2nc(O)c(O)nc2cc1-c1c[nH]cn1	690	
Oc1nc2cc(-n3ccnc3)c(-n3ccnc3)cc2nc1O	820	
Oc1nc2cc(F)c(-n3ccnc3)cc2nc1O		inhibition [3]: 14%
Oc1nc2ccc(-n3ccnc3)c(C(F)(F)F)c2nc1O		inhibition [3]: 10%
O=[N+]([O-])c1cc2nc(O)c(O)nc2cc1-n1cnc2ccccc21	1300	
O=[N+]([O-])c1cc2nc(O)c(O)nc2cc1-n1cnc2c1CCCC2	4800	
Cc1ccc2nc(O)c(O)nc2c1		inhibition [2]: 28%
N#Cc1cc2nc(O)c(O)nc2cc1-n1ccnc1	200	
O=c1[nH]c2cc(-n3ccnc3)c([N+](=O)[O-])cc2[nH]c1=O [YM-90K]	84	Ki [4]: 2200 nM; Ki (Glutamate NMDA receptor [5]): 37000 nM; Ki (Glutamate NMDA receptor [6]): > 100000 nM
Nc1cc2nc(O)c(O)nc2cc1-n1ccnc1		inhibition [3]: 16%
Oc1nc2cc(-n3ccnc3)c(C(F)(F)F)cc2nc1O	200	
O=[N+]([O-])c1cc2nc(O)c(O)nc2cc1-n1cncn1	240	
Cc1nccn1-c1cc2nc(O)c(O)nc2cc1[N+](=O)[O-]	430	
Oc1nc2ccc(-n3ccnc3)cc2nc1O	1600	
NS(=O)(=O)c1cccc2c1c([N+](=O)[O-])cc1nc(O)c(O)nc12 [NBQX]		Ki (Glutamate NMDA receptor [5]): > 100000 nM; Ki (Glutamate NMDA receptor [6]): > 100000 nM
N#Cc1cc2c(cc1[N+](=O)[O-])=NC(=O)C(=O)N=2		Ki [4]: 1800 nM; Ki (Glutamate NMDA receptor [5]): 5600 nM; Ki (Glutamate NMDA receptor [6]): 25000 nM
CC(=O)c1cc2nc(O)c(O)nc2cc1-n1ccnc1		inhibition [3]: 36%
O=[N+]([O-])c1cc2nc(O)c(O)nc2cc1-c1cccnc1	620	
O=[N+]([O-])c1ccc2nc(O)c(O)nc2c1	2000	
Cc1cc2nc(O)c(O)nc2cc1-n1ccnc1		inhibition [3]: 14%
